{"source": "patent US20200253959A1", "about": "“COMPOUNDS AND PHARMACEUTICAL COMPOSITIONS THEREOF FOR USE IN THE TREATMENT OF FIBROTIC DISEASES” (Galapagos NV, priority 2017, published 2020)", "key": {"subjects with IPF [1]": {"test_system": "subjects with IPF", "experiment": "Functional respiratory imaging (FRI) from HRCT in IPF subjects", "format": "in vivo, human", "source_text": "HRCT will be performed (post dose if applicable) at the time points indicated in the study chart (see 1.4 above) and according to sequence of study assessments. HRCT scans will be used to generate FRI measurements allowing for an evaluation of regional IPF disease manifestation and disease progression. In case the subject is on bronchodilators, he/she can use the bronchodilator after the spirometry but prior to HRCT for FRI parameters.\nAt each computed tomography (CT) assessment an inspiratory and an expiratory scan will be taken. During the baseline visit an additional scan of the upper airway will be taken. The inspiratory and an expiratory scan will expose the subject to a total radiation dose of approximately 4-5 mSv per visit, including the initial CT localizer radiograph (topogram scout). The upper airway scan will expose a subject to approximately 1 mSv. A radiation dose of approximately 2-2.5 mSv is equivalent to approximately 1 year of background radiation (based on the assumption of an average “effective dose” from natural background radiation is of 3.1 mSv per year in the US and 2.4 mSv per year in Europe. (USNRC, 2014; WNA, 2015)\nAll CT images will be imported into Mimics, a commercial, medical image processing software package (Materialise, Leuven, Belgium, Food and Drug Administration, K073468; CE certificate, BE 05/1191 CE01) for analysis. This software package converts the HRCT images into patient specific, 3-dimensional computer models of the lung lobes, the airway lumen and wall, and the vascular tree. The airway and vascular tree are evaluated at functional residual capacity (FRC) and total lung capacity (TLC) level and can be segmented down to bronchi/vessels with a diameter of around 1-2 mm. Beyond this point the HRCT resolution is insufficient to distinguish alveolar and intraluminal air, or blood vessel tissue and surrounding lung tissues. A typical airway model includes 5-10 generations, depending mainly on the disease state of the individual patient. Afterwards the airway lumen models will be processed further to obtain a model that is suitable for flow calculations.\nThe following FRI parameters based on low-dose inspiratory-expiratory multi-slice CT images and computational fluid dynamics flow simulations will be evaluated. • lobar volumes at FRC and TLC • airway volumes at FRC and TLC • airway resistance • internal lobar airflow distribution • low attenuation or emphysema score at TLC • blood vessel density or fibrosis score at TLC • airway wall thickness at TLC • air trapping at FRC • mass of deposited particles per defined airway section"}, "LPA 18:2 [2]": {"test_system": "LPA 18:2", "experiment": "Human plasma assay for the reduction of LPA 18:2", "format": "biochemical"}, "surfactant protein A": {"test_system": "surfactant protein A", "experiment": "Biomarker analysis surfactant protein A in blood of IPF subjects", "format": "in vivo, human", "details": "following 12 weeks of treatment", "method": "(§1) Blood samples of 14 mL will be collected predose by venipuncture (or indwelling catheter for pharmacokinetic sampling days) in the arm at the time points indicated in the study flow chart and according to sequence of study assessments.\nThe following exploratory biomarkers are evaluated in blood samples: • KL-6/Muc1 • surfactant protein A and D • CCL18 • ATX • MMP1, MMP7 • markers of extracellular matrix (ECM) turnover (neoepitope assay)"}, "subjects with IPF [3]": {"test_system": "subjects with IPF", "experiment": "Clinical study in IPF subjects: pulmonary function by spirometry (FVC)", "format": "in vivo, human", "method": "The study is a randomized, double-blind, parallel group, placebo-controlled, multicenter study to evaluate the test compound in subjects with IPF.\nAt baseline, after the subject's eligibility for the study has been confirmed, subjects are randomized in a 3:1 ratio test compound (600 mg q.d.) : matching placebo administered for 12 weeks.\nSubjects receive 600 mg of test compound (3 capsules of 200 mg) or placebo q.d. for 12 weeks administered in the morning.\nPulmonary function will be assessed through spirometry both performed at the study center (at screening, baseline, and thereafter post dose at the time points indicated in the study schedule and according to sequence of study assessments) and at home (at baseline and thereafter post dose; on a daily basis in the morning). Specific instructions on how to perform the spirometry at home are provided in a separate spirometry user manual.\nThe following parameters will be measured as part of the spirometry assessment: • FEV1 (L) and percent predicted FEV1 • FVC (L) and percent predicted FVC • FEV1/FVC ratio • Forced expiratory flow (FEF) between 25 and 75% of exhaled volume (FEF25-75)"}, "[4]": {"experiment": "Compound plasma concentration in healthy volunteers (PK/PD correlation in plasma)", "format": "in vivo, human", "details": "listed as Compound I", "source_text": "(§2) A first trial is a randomized, double-blind, placebo-controlled, single center study evaluating single ascending doses (SAD) and multiple ascending (MAD) doses of compound 1 in healthy male volunteers (see Van der Aar E M, 2016)."}, "LPA C8:2": {"test_system": "LPA C8:2", "experiment": "Plasma LPA reduction in healthy volunteers (PK/PD correlation in plasma)", "format": "in vivo, human", "source_text": "as §2"}, "LPA 18:2 [5]": {"test_system": "LPA 18:2", "experiment": "LPA 18:2 levels in blood samples of IPF subjects", "format": "in vivo, human", "details": "for LPA 18:2 % reduction: IPF patients, plasma", "method": "as §1\nFrom the blood samples, the LPA 18:2 levels are determined using laboratory techniques."}, "[6]": {"experiment": "Test compound plasma levels and PK parameters in IPF patients (LC-MS/MS, non-compartmental analysis)", "format": "in vivo, human", "details": "for Compound I concentration: listed as Compound I", "method": "The test compound plasma levels were determined by LC-MS/MS and PK parameters by non-compartmental analysis using Phoenix WinNonlin."}}, "note": "“And” between values parts separate entries of the source, which are not always exact repeats. Equal values may be shown once.", "data": [{"molecule": "CCc1nc2c(C)cc(N3CCN(CC(=O)N4CC(O)C4)CC3)cn2c1N(C)c1nc(-c2ccc(F)cc2)c(C#N)s1", "note": "[Compound 1]", "values": [{"measurement": "Specific airway resistance", "setting": "subjects with IPF [1]; Baseline, Compound 1 group", "result": 0.11, "unit": "kPa/sec"}, {"measurement": "Specific airway volume", "setting": "subjects with IPF [1]; Baseline, Compound 1 group", "result": 3.92, "unit": "mL/L"}, {"measurement": "Specific airway resistance", "setting": "subjects with IPF [1]; Week 12, 600 mg q.d.", "result": 0.12, "unit": "kPa/sec"}, {"measurement": "Specific airway volume", "setting": "subjects with IPF [1]; Week 12, 600 mg q.d.", "result": 3.80, "unit": "mL/L"}, {"measurement": "airway resistance (in words)", "setting": "subjects with IPF [1]; baseline vs Week 12", "result": "stabilization"}, {"measurement": "airway volume (in words)", "setting": "subjects with IPF [1]; baseline vs Week 12", "result": "stabilization"}, {"measurement": "IC50 in human plasma assay for the reduction of LPA 18:2", "setting": "LPA 18:2 [2]", "result": 0.143, "unit": "µg/mL"}, {"measurement": "surfactant protein A in blood (in words)", "setting": "surfactant protein A", "result": "statistically significant increase"}, {"measurement": "FVC CFB", "setting": "subjects with IPF [3]; 600 mg q.d., Week 4, IPF subjects", "result": "+116 mL"}, {"measurement": "FVC CFB", "setting": "subjects with IPF [3]; 600 mg q.d., Week 8, IPF subjects", "result": "+15 mL"}, {"measurement": "FVC CFB", "setting": "subjects with IPF [3]; 600 mg q.d., Week 12, IPF subjects, mean from baseline, listed as Cpd I", "result": "+8 mL"}, {"measurement": "FVC CFB", "setting": "subjects with IPF [3]; 600 mg q.d., Week 12, IPF subjects, mean from baseline, listed as compound according to Formula I", "result": 8, "unit": "mL"}, {"measurement": "FVC CFB", "setting": "subjects with IPF [3]; Follow up (2 weeks after last administration of 600 mg q.d.)", "result": -55, "unit": "mL"}, {"measurement": "Compound I concentration", "setting": "[4]; D 14 - 6 h post-dose", "result": "6506 nM and 3830 ng/mL"}, {"measurement": "Compound I concentration", "setting": "[4]; D 14 - 24 h post-dose", "result": "421 nM and 249 ng/mL"}, {"measurement": "LPA C8:2 % reduction", "setting": "LPA C8:2; D 14 - 6 h post-dose", "result": 83, "unit": "%"}, {"measurement": "LPA C8:2 % reduction", "setting": "LPA C8:2; D 14 - 24 h post-dose", "result": 66, "unit": "%"}, {"measurement": "LPA18:2 percentage reduction", "setting": "LPA 18:2 [5]; 600 mg q.d., Week 4, positive value = reduction", "result": 52.48, "unit": "%"}, {"measurement": "LPA18:2 percentage reduction", "setting": "LPA 18:2 [5]; 600 mg q.d., Week 12, positive value = reduction", "result": 67.48, "unit": "%"}, {"measurement": "LPA18:2 percentage reduction", "setting": "LPA 18:2 [5]; Follow up visit, negative value = increase in LPA levels", "result": "−34.36", "unit": "%"}, {"measurement": "LPA 18:2 % reduction", "setting": "LPA 18:2 [5]; Week 4 - 0 h post-dose (second line so labelled, r10)", "result": 88, "unit": "%"}, {"measurement": "LPA 18:2 % reduction", "setting": "LPA 18:2 [5]; Week 4 - 0 h post-dose", "result": 52, "unit": "%"}, {"measurement": "LPA 18:2 % reduction", "setting": "LPA 18:2 [5]; Week 12 - 0 h post-dose", "result": 68, "unit": "%"}, {"measurement": "LPA 18:2 levels after stopping the administration (in words)", "setting": "LPA 18:2 [5]; after stopping administration", "result": "levels returning to or above baseline levels"}, {"measurement": "LPA 18:2 levels on administration (in words)", "setting": "LPA 18:2 [5]; during administration, 600 mg q.d.", "result": "stable decrease in LPA 18:2 levels"}, {"measurement": "Compound I concentration", "setting": "[6]; Week 4 - 0 h post-dose (second line so labelled, r10), plasma", "result": "6557 nM and 3860 ng/mL"}, {"measurement": "Compound I concentration", "setting": "[6]; Week 4 - 0 h post-dose, plasma", "result": "1020 nM and 604 ng/mL"}, {"measurement": "Compound I concentration", "setting": "[6]; Week 12 - 0 h post-dose, plasma", "result": "1698 nM and 1000 ng/mL"}, {"measurement": "AUC", "setting": "[6]; human, plasma, oral, week 4, 600 mg q.d., read-out: mean area under the plasma concentration time curve for the dosing interval of 24 hours (AUC0-τ)", "result": 55600, "unit": "ng·h/mL"}, {"measurement": "Cmax", "setting": "[6]; human, plasma, oral, week 4, 600 mg q.d., read-out: median maximum observed plasma concentration (Cmax)", "result": 6060, "unit": "ng/mL"}, {"measurement": "Tmax", "setting": "[6]; human, plasma, oral, week 4, 600 mg q.d., read-out: median tmax", "result": 4, "unit": "h"}, {"measurement": "trough plasma concentration (Cτ)", "setting": "[6]; week 4, 600 mg q.d.", "result": 604, "unit": "ng/mL"}]}]}
